The source of these data is DBAASP.

Molecules are shown by their SMILES. Converted amounts (≈) assume the structure as drawn.

Some test systems named below: Escherichia coli 780; Escherichia coli 804; Staphylococcus aureus 75; Escherichia coli BW25113; Escherichia coli; Yersinia enterocolitica; Salmonella sp.
Common to all, as to assay: ≥ marks a high value that may be exact or a test limit, other limits are often not marked, values filed in µg/mL are converted to µM
In assay [1] the test system is Acinetobacter baumannii ATCC 19606.
In assay [2] the test system is Escherichia coli ATCC 25922(RifR).
The subject of assay [3] is Staphylococcus aureus ATCC 29213.
Assay [4] deals with Klebsiella pneumoniae ATCC 700603(GenR).
In assay [5] the test system is Acinetobacter baumannii ATCC 19606(CipR).
The test system of assay [6] is Klebsiella pneumoniae ATCC 700603(CipR).
Assay [7] relates to Bacillus subtilis ATCC 23857.
For assay [8], the system named is Klebsiella pneumoniae ATCC 700603(ImiR).
The subject of assay [9] is Acinetobacter baumannii ATCC 19606(RifR).
The subject of assay [10] is Pseudomonas aeruginosa ATCC 27853(ImiR).
Assay [11] concerns Klebsiella pneumoniae ATCC 700603.
For assay [12], the system named is Staphylococcus aureus 113.
The subject of assay [13] is Klebsiella pneumoniae ATCC 700603(RifR).
For assay [14], the system named is Pseudomonas aeruginosa ATCC 27853(RifR).
Assay [15] has as its system Acinetobacter baumannii 9931.
Assay [16] concerns Staphylococcus epidermidis ATCC 12228.
Assay [17] has as its system Pseudomonas aeruginosa ATCC 27853(CipR).
Assay [18] deals with Acinetobacter baumannii ATCC 19606(ImiR).
The test system of assay [19] is Pseudomonas aeruginosa ATCC 27853.
Assay [20] has as its system Pseudomonas aeruginosa ATCC 27853(GenR).
Assay [21] deals with Escherichia coli ATCC 25922(CipR).
The subject of assay [22] is Pseudomonas aeruginosa ATCC 9027.
In assay [23] the test system is Escherichia coli ATCC 25922(ImiR).
Assay [24] deals with Acinetobacter baumannii ATCC 19606(GenR).
Assay [25] relates to Escherichia coli ATCC 25922(GenR).
The test system of assay [26] is Pseudomonas aeruginosa 50.
Assay [27] concerns Escherichia coli DH5alpha.
The test system of assay [28] is Zymomonas mobilis ATCC 10988.
For assay [29], the system named is Pseudomonas aeruginosa 73.
Assay [30] has as its system Acinetobacter baumannii 97830.
The test system of assay [31] is Staphylococcus aureus ATCC 25923.
Assay [32] concerns Escherichia coli BW25113 ΔsbmA.
Assay [33] deals with Escherichia coli ATCC 25922.
The subject of assay [34] is Staphylococcus aureus ATCC 43300.
The subject of assay [35] is Salmonella enterica subsp. enterica serovar Enteritidis.

For `NCCCC[C@H](NC(=O)[C@H](CCCN=C(N)N)NC(=O)[C@H](Cc1c[nH]c2ccccc12)NC(=O)[C@H](CCCCN)NC(=O)[C@H](CCCN=C(N)N)NC(=O)[C@H](Cc1c[nH]c2ccccc12)NC(=O)[C@H](CCCCN)NC(=O)[C@H](CCCN=C(N)N)NC(=O)[C@H](Cc1c[nH]c2ccccc12)NC(=O)[C@H](CCCCN)NC(=O)[C@H](CCCN=C(N)N)NC(=O)[C@@H](N)Cc1c[nH]c2ccccc12)C(N)=O` [WRKWRKWRKWRK], the minimal inhibitory concentration (MIC) in [1] was 8 µM (≈ 15.2 µg/mL); in [2], 16 µM (≈ 30.4 µg/mL); in [3], 4 µM (≈ 7.6 µg/mL); in assay [4], at least 32 µM; in assay [5], 16 µM (≈ 30.4 µg/mL); in assay [6], at least 32 µM. Moreover, the MIC in [7] is 2 µM (≈ 3.8 µg/mL); in assay [8], 16 µM (≈ 30.4 µg/mL); in assay [9], 8 µM (≈ 15.2 µg/mL); in assay [10], 8 µM (≈ 15.2 µg/mL); in assay [11] it was 16 µM (≈ 30.4 µg/mL); in [12], 2 µM (≈ 3.8 µg/mL). For the same compound, the minimal inhibitory concentration (MIC) with Escherichia coli 780 is 8 µM (≈ 15.2 µg/mL); in assay [13] it was 16 µM (≈ 30.4 µg/mL); against Escherichia coli 804, 16 µM (≈ 30.4 µg/mL); against Staphylococcus aureus 75, 4 µM (≈ 7.6 µg/mL); in [14] it was 4 µM (≈ 7.6 µg/mL); in assay [15] it was 8 µM (≈ 15.2 µg/mL). The minimum inhibitory concentration (MIC) in assay [16] was 4 µM (≈ 7.6 µg/mL); in assay [17], 4 µM (≈ 7.6 µg/mL); in assay [18], 16 µM (≈ 30.4 µg/mL); in assay [19] it was 4 µM (≈ 7.6 µg/mL); in [20], at least 32 µM; in [21], 8 µM (≈ 15.2 µg/mL). The MIC in [22] turned out to be 4 µM (≈ 7.6 µg/mL); in assay [23], 16 µM (≈ 30.4 µg/mL); in assay [24] it was 16 µM (≈ 30.4 µg/mL); in assay [25], 8 µM (≈ 15.2 µg/mL); in assay [26], 4 µM (≈ 7.6 µg/mL).
On to `CC[C@H](C)[C@H](NC(=O)[C@H](CCCN=C(N)N)NC(=O)[C@H](CCC(N)=O)NC(=O)[C@@H](NC(=O)[C@@H](NC(=O)[C@H](CCCN=C(N)N)NC(=O)[C@H](CCCCN)NC(=O)[C@@H](N)CC(C)C)[C@@H](C)CC)C(C)C)C(=O)N[C@@H](CCCCN)C(=O)N[C@@H](CC(=O)O)C(=O)N[C@@H](Cc1ccccc1)C(=O)N[C@@H](CC(C)C)C(=O)N[C@@H](CCCN=C(N)N)C(N)=O` [LKRIVQRIKDFLR], for which the minimal inhibitory concentration (MIC) in assay [27] and in assay [28] was at least 119 µM in each case.
Regarding `C[C@H](N)C(=O)N[C@@H](CCCN=C(N)N)C(=O)N[C@@H](CCCN=C(N)N)C(=O)N[C@@H](Cc1c[nH]c2ccccc12)C(=O)N[C@@H](Cc1c[nH]c2ccccc12)C(=O)N[C@@H](Cc1c[nH]c2ccccc12)C(=O)N[C@@H](CCCN=C(N)N)C(=O)N[C@@H](CCCN=C(N)N)C(=O)N[C@@H](C)C(N)=O` [ARRWWWRRA], the MIC in assay [1] was 128 µM (≈ 172 µg/mL); in assay [3], 32 µM (≈ 43 µg/mL); in assay [7], 8 µM (≈ 10.7 µg/mL); in [11], over 128 µM; in [12] it was 16 µM (≈ 21.5 µg/mL); in the assay on Escherichia coli 780, at least 32 µM. Further, the MIC against Escherichia coli 804 was at least 64 µM; against Staphylococcus aureus 75 it was 16 µM (≈ 21.5 µg/mL); in assay [15], at least 64 µM; in assay [29], at least 128 µM; in [16], 8 µM (≈ 10.7 µg/mL); in assay [30], at least 128 µM. The MIC in assay [19] is 128 µM (≈ 172 µg/mL); in [22], 128 µM (≈ 172 µg/mL); in assay [26], at least 128 µM.
In the case of `CC[C@H](C)[C@H](NC(=O)[C@H](CCCN=C(N)N)NC(=O)[C@@H](N)Cc1c[nH]c2ccccc12)C(=O)N[C@@H](CCCN=C(N)N)C(=O)N1CCC[C@H]1C(=O)N[C@@H](CCCN=C(N)N)C(=O)N1CCC[C@H]1C(=O)N1CCC[C@H]1C(=O)N[C@@H](CCCN=C(N)N)C(=O)N[C@@H](CC(C)C)C(=O)N1CCC[C@H]1C(=O)N[C@@H](CCCN=C(N)N)C(=O)N1CCC[C@H]1C(=O)N[C@@H](CCCN=C(N)N)C(=O)N1CCC[C@H]1C(=O)N[C@@H](CCCN=C(N)N)C(=O)O` [WRIRPRPPRLPRPRPR], the MIC in assay [1] is 32 µM (≈ 67.4 µg/mL); in [31], over 64 µM; in [32], 12 µM (≈ 25.3 µg/mL); in assay [11], 16 µM (≈ 33.7 µg/mL); in the assay with Escherichia coli BW25113 it was 1 µM (≈ 2.11 µg/mL); in assay [19], over 64 µM. For the same compound, the minimal inhibitory concentration (MIC) in assay [33] was found to be 1 µM (≈ 2.11 µg/mL).
On to `CC[C@H](C)[C@H](NC(=O)[C@H](CCCCN)NC(=O)[C@@H](N)CCCN=C(N)N)C(=O)N[C@@H](CCCN=C(N)N)C(=O)N[C@@H](CCCN=C(N)N)C(=O)N[C@@H](CCCCN)C(=O)N[C@@H](Cc1c[nH]c2ccccc12)C(=O)N[C@@H](CCCCN)C(=O)N[C@@H](CCCN=C(N)N)C(N)=O` [RKIRRKWKR], for which the MIC with Escherichia coli was over 37.7 µM; in assay [3] it was over 37.7 µM; against Yersinia enterocolitica, at least 37.7 µM; in assay [34], over 37.7 µM; against Salmonella sp., at least 37.7 µM; in [33], over 37.7 µM. Besides, the minimal inhibitory concentration (MIC) in [35] was at least 37.7 µM.
